# pIC50: −log10 of the molar value. Counter-ions that a name gives are not always drawn.
# Assays:
# [1] = tested on: TG3 immunoreactivity in OKA treated MSN1a cells; assay: inhibition of TG3 immunoreactivity in OKA treated MSN1a cells (ELISA); type: cell-based, human; details: for pIC50: Homo sapiens, 1 μM OKA, 0-64 μM drug, 2 hrs at 37° C., TG3 antibody
# Experimental: Therefore, the therapeutic activity of the compounds of the invention was assessed by the ability of these agents to affect the production of abnormally phosphorylated epitopes pertinent to the production of PHFs of AD, utilizing a human neuroblastoma cell line (MSN1a) in the presence of the protein phosphatsse inhibitor, okadaic acid (OKA).
# This assay can thus be used to determine whether a drug is capable of preventing or intervening in AD by attenuating the production of abnormally phosphorylated paired helical filament epitopes associated with AD. To determine whether a drug is capable of preventing or intervening in AD activity, the MSN1a cells containing tau and associated proteins are treated with OKA capable of greatly increasing immnunoreactivity of the MSN1a cells with AD specific monoclonal antibodies. Then, either prior to or concomitantly with OKA treatment, a compound of the present invention is added to the culture. If the compound prevents the induction of the AD epitopes in the MSN1a cells treated with OKA, then it is said to have anti-AD activity. If the AD-specific antibodies are highly reactive with the neuroblastoma cells following OKA treatment in the presence of compound, then the compound is said to be ineffectual against AD.
# The MSN1a human neuroblastoma line was subcloned from a population of MSN cells obtained from the laboratory of Dr. Peter Davies (Albert Einstein College of Medicine, New York, N.Y.). Cells were grown and maintained in flasks in RPMI 1640 medium, supplemented with 15% fetal calf serum, 100 U/ml penicillin, 100 U/ml Streptomycin, 0.5 ug/ml fungizone under 7.5% CO2 at 37° C.
# Stock solutions of drugs were prepared by dissolving the anhydrous powders to final concentrations of either 10 or 20 mM in 50% aqueous or 100% dimethyl sulfoxide (DMSO), respectively. […]
# MSN cells grown in 225 cm^2 flasks are removed from the incubator, their medium decanted and replaced with 50 ml pre-warmed KRH. […] The supernatants are discarded and the cell pellets are resuspended, the cells counted and diluted to a density of 2×10^4 cells/50 ml. […]
# [2] = tested on: PHF epitope levels in frontal (Brodman Area 10) and temporal (Brodman Area 38) brain tissue; assay: ALZ-EIA of PHF (ADAP) levels in post-mortem brain tissue of patients chronically treated with chlorpromazine; type: in vivo, human; details: chronic treatment; frontal and temporal tissue at autopsy; vs normal controls and AD (FIGS. 4A, 4B)
# Experimental: FIG. 4A is a chart showing relative ADAP concentrations in Brodman Area 10 in Alzheimer's Disease patients, normal controls and patients treated with chlorpromazine (Rx).
# FIG. 4B is a chart showing relative ADAP concentrations in Brodman Area 38 in Alzheimer's Disease patients, normal controls and patients treated with chlorpromazine (Rx).
# Frontal and cortical brain tissue specimens obtained at autopsy from patients chronically treated with chlorpromazine were analyzed using the ALZ-EIA method previously described (Ghanbari, H A, et al, JAMA, 263, 2907, 1990). The results are shown in FIGS. 4A and 4B frontal (Broadman area 10) and temporal (Broadman area 38) regions, respectively. The brain tissue (post-mortem) from approximately the same number of (age matched) normal controls and Alzheimer's Disease patients were also analyzed and are presented in these figures as negative and positive controls (for normal and AD, respectively).
# [3] = tested on: PHF epitopes in MSN1a cells (PHF-1 immunoreactivity); assay: PHF-1 immunoreactivity (western blot) in okadaic acid treated MSN1a cells; type: cell-based, human
# Experimental: FIG. 3 is a western blot showing PHF-1 immunoreactivity in lysates from control and chlorpromazine treated MSN cells treated with okadaic acid.
# These compounds are effective at micromolar concentrations, with increased potency being evident when cells are treated prior to the addition of okadaic acid. The effective concentrations appear to be in the range at which these drugs are present in the brain following chronic treatment of psychiatric patients (Svendsen, C N, Psychopharmacology, 90, 316-321, 1986).
# To determine the effect of chlorpromazine on the paired helical filament epitopes associated with AD, MSN1a cells expressing paired helical filament epitopes were incubated with […] chlorpromazine (CPZ) or a 0.2% DMSO vehicle control for 2 hours at 37° C. The cells were isolated by centrifugation, boiled for 10 minutes and […] protein from the resulting heat stable supernatants were loaded per lane on an SDS-PAGE gel. The gel was electrophoretically transferred to nitrocellulose membrane and then immunostained with PHF-1. […] The use of the MSN1a cell culture model for screening of novel compounds for therapeutic activity in AD is, therefore, quite warranted.
# [4] = tested on: PHF-1 and TG3 epitopes in MSN1a cells; assay: generation of Alzheimer epitopes (PHF-1 and TG3) in MSN1a cells by okadaic acid; type: cell-based, human
# Experimental: Conditions were established which led to hyperphosphorylation of the proteins known to be involved in PHF formation. Using monoclonal antibodies PHF-1 and TG3 generated to human PHF preparations, the effects of a variety of manipulations of the phosphorylation state of these proteins were tested. These tests required that most of the abnormal epitopes recognized by these monoclonal antibodies in the human Alzheimer brain should be generated in the MSN1a cells. […] These epitopes are either absent or present at a very low level in untreated MSN1a cells.
# Shown in FIG. 2A are bar graphs (percent of AD) of the ELISA immunoreactivity of brain preparations (AD or normal) to either PHF-1 or TG3. Shown in FIG. 2B are bar graphs (percent of MSN+) of the ELISA immunoreactivity of MSN1a cell preparations (minus or plus okadaic acid) to either PHF-1 or TG3. The MSN1a cell preparations plus vs minus okadaic acid closely parallel the AD vs nomal brain preparations. […] The cell culture system according to the invention in which epitopes characteristic of PHF can be readily generated and subsequently recognized by the specific Alzheimer brain specific antibodies provides an assay suitable for screening compounds for their ability to block the production of these phosphorylated epitopes.
structure (smiles),measurement,setting,value
"CN(C)CCCN1c2ccccc2Sc2ccc(Cl)cc21 [Chlorpromazine, chlorpromazine]",inhibition of the production of aberrantly phosphorylated epitopes,"[1]; MSN1a cell culture model, TG3",effective in inhibiting the production of these aberrant phosphorylated epitopes
same,PHF epitope levels in brain of chlorpromazine treated patients,[2],low PHF epitope levels similar to normal controls
same,production of paired helical filament epitopes by the MSN1a cells,"[3]; 100 mM chlorpromazine, 2 hours at 37° C., PHF-1 immunostain",greatly decreased the production of paired helical filament epitopes
same,inhibition of the expression of PHF epitopes,"[3]; MSN1a cells treated with okadaic acid, Alzheimer's Disease specific antibodies (cf. FIG. 3)",markedly inhibit the expression of PHF epitopes
"CSc1ccc(C(=O)CCN2CCN(Cc3ccccc3)CC2)cc1 [Example 14, 1-(p-Methylthiophenyl)-3-(4'-benzyl-1'-piperazinyl)-1-propanone dihydrochloride]",pIC50,[1],5.24
"O=C(CCN1CCN(C(=O)c2cccc(F)c2F)CC1)c1ccc([N+](=O)[O-])cc1 [Example 63, 1-(p-Nitrophenyl)-3-[4'-(2"",3""-difluorobenzoyl)-1'-piperazinyl]-1-propanonedlhydrochlorde]",pIC50,[1],5.14
C=C1[C@@H](O)[C@@H]2O[C@]3(CC[C@H](/C=C/[C@@H](C)[C@@H]4CC(C)=C[C@@]5(O[C@H](C[C@@](C)(O)C(=O)O)CC[C@H]5O)O4)O3)CC[C@H]2O[C@@H]1[C@@H](O)C[C@H](C)[C@H]1O[C@@]2(CCCCO2)CC[C@H]1C [okadaic acid],generation of the epitopes associated with Alzheimer brain specific monoclonal antibodies,[4],found to generate the epitopes
